From the NIST ThermoML archive (doi:10.1016/j.jct.2005.03.023)
± gives the expanded uncertainty stated by the source.

Assay: mn = molality of the nth substance listed, in mol/kg
Details: 101.3 kPa, Liquid

O=C[C@H](O)[C@@H](O)[C@H](O)CO [D-xylose] + O
mass density [kg/m3]
Details | m1 = 0.25 | m1 = 0.4 | m1 = 0.55 | m1 = 0.7 | m1 = 0.85 | m1 = 1
278.15 K | 1013.81 ± 0.39 | 1021.78 ± 0.42 | 1029.49 ± 0.45 | 1036.97 ± 0.48 | 1044.24 ± 0.51 | 1051.27 ± 0.54
288.15 K | 1012.76 ± 0.38 | 1020.47 ± 0.41 | 1028.02 ± 0.45 | 1035.37 ± 0.48 | 1042.46 ± 0.51 | 1049.35 ± 0.53
298.15 K | 1010.39 ± 0.37 | 1018.06 ± 0.4 | 1025.49 ± 0.43 | 1032.72 ± 0.47 | 1039.74 ± 0.49 | 1046.52 ± 0.52
308.15 K | 1007.15 ± 0.36 | 1014.77 ± 0.39 | 1022.12 ± 0.42 | 1029.24 ± 0.45 | 1036.18 ± 0.48 | 1042.87 ± 0.51
318.15 K | 1003.29 ± 0.34 | 1010.79 ± 0.38 | 1018.05 ± 0.41 | 1025.13 ± 0.44 | 1031.95 ± 0.46 | 1038.63 ± 0.49
